Article PMC10714400, “Antimicrobial Peptide–Peptoid Hybrids with and without Membrane Disruption” (ACS Infectious Diseases, 2023)
Read-outs that look alike come from different tables or passages of the source. Where a SMILES comes first, the peptide text is derived from it. [ ]: non-standard residue; d: D form.

Assays:
P. aeruginosa PA14 = test system: P. aeruginosa PA14
Procedure, shortened: (§1)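 MICs were determined by broth microdilution in MH medium, with approximately 5 × 10^5 CFU added per well and plates held at 37 °C for about 18 h without shaking.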

S. aureus Newman = test system: S. aureus Newman
Procedure, shortened: as §1

B. cenocepacia = test system: B. cenocepacia
Procedure, shortened: as §1

S. maltophilia = test system: S. maltophilia
Procedure, shortened: as §1

S. epidermis = test system: S. epidermis
Procedure, shortened: as §1

[1] = test system: human red blood cells (hRBC); test: Minimum hemolytic concentration (MHC); format: cell-based
Excerpt: We also measured minimal hemolysis concentrations (MHC) on human red blood cells by serial 2-fold dilution as an indication of toxicity against eukaryotic cells (Table 1).

PA14 4.18 (pmrB) = test system: PA14 4.18 (pmrB)
Procedure, shortened: as §1

K. pneumoniae OXA-48 = test system: K. pneumoniae OXA-48
Procedure, shortened: as §1

[2] = test system: ZEM9A (clinical MDR P. aeruginosa isolate)
Procedure, shortened: as §1

E. coli W3110 = test system: E. coli W3110
Procedure, shortened: as §1

S. aureus COL (MRSA) = test system: S. aureus COL (MRSA)
Procedure, shortened: as §1

[3] = test system: ZEM-1A (clinical MDR P. aeruginosa isolate)
Procedure, shortened: as §1

E. cloacae = test system: E. cloacae
Procedure, shortened: as §1

PA14 2P4 (pmrB) = test system: PA14 2P4 (pmrB)
Procedure, shortened: as §1

PA14 4.13 (phoQ) = test system: PA14 4.13 (phoQ)
Procedure, shortened: as §1

HEK293 cells = test: Cell viability assay by Alamar blue; details: read-out: Toxicity on HEK293 cells; CSV
Protocol: The data are represented as the mean value ± SD, n = 3. […] (c) Vesicle leakage assay for a selection of compounds. Lipid vesicles made of EYPG or EYPC were suspended in a buffer (10 mM TRIS, 107 mM NaCl, pH 7.4). After 45 s, the indicated compound was added to reach the desired concentration. After 240 s, 30 μL of 1.2% TritonX-100 was added for full fluorescein release. […] See Supporting Information for the full curves, all of the data, and procedures.
HEK293 cells were cultured and maintained in DMEM high glucose (Dulbecco’s modified Eagle medium, Sigma Aldrich) medium supplemented with 10% FBS (Sigma Aldrich) and 1% penicillin/streptomycin. A549 cells were cultured and maintained in RPMI-1640 medium (Sigma Aldrich), supplemented with 10% FBS (Sigma Aldrich) and 1% penicillin/streptomycin. The cells were handled and subcultured according to the manufacturer instructions. Cells were incubated in a humidified incubator at 37 °C in the presence of 5% CO2.
Assays on HEK293, A549 cells were performed as described earlier.[74] […]

CC(C)C[C@H](NC(=O)[C@H](CC(C)C)NC(=O)[C@H](CC(C)C)NC(=O)[C@@H](CCCCN)NC(=O)[C@H](CC(C)C)NC(=O)[C@H](CC(C)C)NC(=O)[C@@H](CCCCN)NC(=O)[C@H](CC(C)C)NC(=O)[C@H](CC(C)C)NC(=O)[C@@H](CCCCN)NC(=O)[C@H](N)CCCCN)C(N)=O [ln69, kkLLkLLkLLL, reference compound] (H-[dK][dK]LL[dK]LL[dK]LLL-NH2)
3 ug/mL: MIC P. aeruginosa PA14, […] MH at pH 8.5 (P. aeruginosa PA14; CSV, […] MH at pH 8.5) | MIC S. aureus Newman, […] MH at pH 8.5 (S. aureus Newman; CSV, […] MH at pH 8.5) | MIC S. epidermis, full MH at pH 7.4 (S. epidermis; CSV, full MH at pH 7.4) | MIC P. aeruginosa PA14 4.13, […] MH at pH 8.5 (PA14 4.13 (phoQ); CSV, […] MH at pH 8.5)
1000 µg/mL: MHC [1]
32 µg/mL: MIC PA14 2P4 (pmrB) (PA14 2P4 (pmrB); MH pH 7.4, 16–20 h at 37 °C)
8 ug/mL: MIC S. aureus Newman, full MH at pH 7.4 (S. aureus Newman; CSV, full MH at pH 7.4)
16 ug/mL: MIC P. aeruginosa PA14 4.18, full MH at pH 7.4 (PA14 4.18 (pmrB); CSV, full MH at pH 7.4) | MIC S. aureus COL (MRSA), full MH at pH 7.4 (S. aureus COL (MRSA); CSV, full MH at pH 7.4) | MIC S. aureus COL (MRSA), full MH at pH 8.5 (S. aureus COL (MRSA); CSV, full MH at pH 8.5)
1 ug/mL: MIC S. epidermis, […] MH at pH 8.5 (S. epidermis; CSV, […] MH at pH 8.5)
2 ug/mL: MIC P. aeruginosa PA14, full MH at pH 7.4 (P. aeruginosa PA14; CSV, full MH at pH 7.4) | MIC S. maltophilia, […] MH at pH 8.5 (S. maltophilia; CSV, […] MH at pH 8.5) | MIC S. maltophilia, full MH at pH 7.4 (S. maltophilia; CSV, full MH at pH 7.4) | MIC K. pneumoniae OXA-48, […] MH at pH 8.5 (K. pneumoniae OXA-48; CSV, […] MH at pH 8.5) | MIC P. aeruginosa ZEM9A, […] MH at pH 8.5 ([2]; CSV, […] MH at pH 8.5) | MIC E. coli W3110, […] MH at pH 7.4 (E. coli W3110; CSV, […] MH at pH 7.4) | MIC E. coli W3110, […] MH at pH 8.5 (E. coli W3110; CSV, […] MH at pH 8.5) | MIC S. aureus COL (MRSA), […] MH at pH 7.4 (S. aureus COL (MRSA); CSV, […] MH at pH 7.4) | MIC S. aureus COL (MRSA), […] MH at pH 8.5 (S. aureus COL (MRSA); CSV, […] MH at pH 8.5) | MIC P. aeruginosa ZEM-1A, […] MH at pH 8.5 ([3]; CSV, […] MH at pH 8.5) | MIC P. aeruginosa ZEM-1A, full MH at pH 7.4 ([3]; CSV, full MH at pH 7.4) | MIC E. cloacae, […] MH at pH 8.5 (E. cloacae; CSV, […] MH at pH 8.5)
6 ug/mL: MIC P. aeruginosa ZEM9A, full MH at pH 7.4 ([2]; CSV, full MH at pH 7.4)
4 µg/mL: MIC P. aeruginosa PA14 4.18 (PA14 4.18 (pmrB); Table S3, […] MH at pH 8.5) | MIC K. pneumoniae OXA-48 (K. pneumoniae OXA-48; MH pH 7.4, 16–20 h at 37 °C) | MIC E. coli W3110 Full MH 7.4 (E. coli W3110; Table S2, full MH, pH 7.4) | MIC E. cloacae (E. cloacae; MH pH 7.4, 16–20 h at 37 °C) | MIC P. aeruginosa PA14 2P4 (PA14 2P4 (pmrB); Table S3, […] MH at pH 8.5) | MIC PA14 4.13 (phoQ) (PA14 4.13 (phoQ); MH pH 7.4, 16–20 h at 37 °C)
4 to 8 µg/mL: MIC ZEM9A ([2]; MH pH 7.4, 16–20 h at 37 °C)
4 ug/mL: MIC P. aeruginosa PA14 4.18, […] MH at pH 8.5 (PA14 4.18 (pmrB); CSV, […] MH at pH 8.5) | MIC K. pneumoniae OXA-48, full MH at pH 7.4 (K. pneumoniae OXA-48; CSV, full MH at pH 7.4) | MIC E. coli W3110, full MH at pH 7.4 (E. coli W3110; CSV, full MH at pH 7.4) | MIC E. cloacae, full MH at pH 7.4 (E. cloacae; CSV, full MH at pH 7.4) | MIC P. aeruginosa PA14 2P4, […] MH at pH 8.5 (PA14 2P4 (pmrB); CSV, […] MH at pH 8.5) | MIC P. aeruginosa PA14 4.13, full MH at pH 7.4 (PA14 4.13 (phoQ); CSV, full MH at pH 7.4)
45 ± 9 µM: IC50 (HEK293 cells)
2 µg/mL: MIC P. aeruginosa PA14 (P. aeruginosa PA14; MH pH 7.4, 16–20 h at 37 °C) | MIC S. maltophilia (S. maltophilia; MH pH 7.4, 16–20 h at 37 °C) | MIC S. maltophilia (S. maltophilia; Table S3, […] MH at pH 8.5) | MIC K. pneumoniae OXA-48 (K. pneumoniae OXA-48; Table S3, […] MH at pH 8.5) | MIC P. aeruginosa ZEM9A ([2]; Table S3, […] MH at pH 8.5) | MIC E. coli W3110 […] 7.4 (E. coli W3110; Table S2, […] MH, pH 7.4) | MIC E. coli W3110 […] 8.5 (E. coli W3110; Table S2, […] MH, pH 8.5) | MIC S. aureus COL (MRSA) […] 7.4 (S. aureus COL (MRSA); Table S2, […] MH, pH 7.4) | MIC S. aureus COL (MRSA) […] 8.5 (S. aureus COL (MRSA); Table S2, […] MH, pH 8.5) | MIC S. aureus COL (MRSA) […] (S. aureus COL (MRSA); diluted MH ([…] MH, pH 8.5) per Table 1 footnote b, 16–20 h at 37 °C) | MIC P. aeruginosa ZEM-1A ([3]; Table S3, […] MH at pH 8.5) | MIC E. cloacae (E. cloacae; Table S3, […] MH at pH 8.5)
1 µg/mL: MIC S. epidermis (S. epidermis; Table S3, […] MH at pH 8.5)
2 to 4 µg/mL: MIC P. aeruginosa PA14 (P. aeruginosa PA14; Table S3, […] MH at pH 8.5, 16-20 hours at 37 °C) | MIC S. aureus Newman (S. aureus Newman; Table S3, […] MH at pH 8.5) | MIC S. epidermis (S. epidermis; MH pH 7.4, 16–20 h at 37 °C) | MIC P. aeruginosa PA14 4.13 (PA14 4.13 (phoQ); Table S3, […] MH at pH 8.5)
16 µg/mL: MIC PA14 4.18 (pmrB) (PA14 4.18 (pmrB); MH pH 7.4, 16–20 h at 37 °C) | MIC E. coli W3110 Full MH 8.5 (E. coli W3110; Table S2, full MH, pH 8.5) | MIC S. aureus COL (MRSA) Full MH 7.4 (S. aureus COL (MRSA); Table S2, full MH, pH 7.4) | MIC S. aureus COL (MRSA) Full MH 8.5 (S. aureus COL (MRSA); Table S2, full MH, pH 8.5) | MIC S. aureus COL (MRSA) Full (S. aureus COL (MRSA); full MH, pH 7.4, 16–20 h at 37 °C)
8 µg/mL: MIC S. aureus Newman (S. aureus Newman; MH pH 7.4, 16–20 h at 37 °C)
>32 ug/mL: MIC B. cenocepacia, full MH at pH 7.4 (B. cenocepacia; CSV, full MH at pH 7.4)
>32 µg/mL: MIC B. cenocepacia (B. cenocepacia; MH pH 7.4, 16–20 h at 37 °C)
32 ug/mL: MIC P. aeruginosa PA14 2P4, full MH at pH 7.4 (PA14 2P4 (pmrB); CSV, full MH at pH 7.4)
